Measured values published in the supplement of paper PMC13380429.

Legend:
Conditions in all cases: 72 h
Vero E6 [1] = experiment: drug sensitivity score (DSS) for viability; higher = more toxic; extreme values may be limits of the assay
Calu-3 [2] = experiment: as above
HepG2 [3] = experiment: as above
Caco-2 [4] = experiment: as above
Vero E6 [5] = experiment: relative viability EC50 (midpoint between 100% and the lowest measured viability); higher = less toxic
Calu-3 [6] = experiment: as above
HepG2 [7] = experiment: as above
Caco-2 [8] = experiment: as above
Vero E6 [9] = experiment: cell viability relative to DMSO; higher = less toxic
Calu-3 [10] = experiment: as above
HepG2 [11] = experiment: as above
Caco-2 [12] = experiment: as above
U2OS [13] = experiment: drug sensitivity score (DSS) for viability; higher = more toxic; extreme values may be limits of the assay
U2OS [14] = experiment: relative viability EC50 (midpoint between 100% and the lowest measured viability); higher = less toxic
U2OS [15] = experiment: cell viability relative to DMSO; higher = less toxic

| Compound | drug sensitivity score (Vero E6 [1]) | drug sensitivity score (Calu-3 [2]) | drug sensitivity score (HepG2 [3]) | drug sensitivity score (Caco-2 [4]) | relative viability EC50 (Vero E6 [5]) | relative viability EC50 (Calu-3 [6]) | relative viability EC50 (HepG2 [7]) | relative viability EC50 (Caco-2 [8]) | cell viability (Vero E6 [9]; 1 nM) | cell viability (Vero E6 [9]; 10 nM) | cell viability (Vero E6 [9]; 100 nM) | cell viability (Vero E6 [9]; 1000 nM) | cell viability (Vero E6 [9]; 10000 nM) | cell viability (Calu-3 [10]; 1 nM) | cell viability (Calu-3 [10]; 10 nM) | cell viability (Calu-3 [10]; 100 nM) | cell viability (Calu-3 [10]; 1000 nM) | cell viability (Calu-3 [10]; 10000 nM) | cell viability (HepG2 [11]; 1 nM) | cell viability (HepG2 [11]; 10 nM) | cell viability (HepG2 [11]; 100 nM) | cell viability (HepG2 [11]; 1000 nM) | cell viability (HepG2 [11]; 10000 nM) | cell viability (Caco-2 [12]; 1 nM) | cell viability (Caco-2 [12]; 10 nM) | cell viability (Caco-2 [12]; 100 nM) | cell viability (Caco-2 [12]; 1000 nM) | cell viability (Caco-2 [12]; 10000 nM) | drug sensitivity score (U2OS [13]) | relative viability EC50 (U2OS [14]) | cell viability (U2OS [15]; 1 nM) | cell viability (U2OS [15]; 10 nM) | cell viability (U2OS [15]; 100 nM) | cell viability (U2OS [15]; 1000 nM) | cell viability (U2OS [15]; 10000 nM) |
| --- | --- | --- | --- | --- | --- | --- | --- | --- | --- | --- | --- | --- | --- | --- | --- | --- | --- | --- | --- | --- | --- | --- | --- | --- | --- | --- | --- | --- | --- | --- | --- | --- | --- | --- | --- |
| CC(C)(C)C(=O)C(Oc1ccc(Cl)cc1)n1ccnc1 (centres undefined) [climbazole] | 0 | 0 | 0 | 0 | > 10 µM | > 10 µM | > 10 µM | > 10 µM | 96.6% | 101% | 98.1% | 92.2% | 97.1% | 94.5% | 102% | 98.3% | 94.7% | 101% | 113% | 104% | 93.8% | 107% | 102% | 108% | 100% | 104% | 97% | 98.2% | – | – | – | – | – | – | – |
| O=C(O)c1cc(Oc2ccc([N+](=O)[O-])cc2)cc(Oc2ccc([N+](=O)[O-])cc2)c1 [compound-w] | – | 0 | 0 | – | – | > 10 µM | > 10 µM | – | – | – | – | – | – | 107% | 104% | 105% | 96.9% | 94.6% | 106% | 98.9% | 102% | 104% | 108% | – | – | – | – | – | – | – | – | – | – | – | – |
| O=C1CN(/N=C/c2ccc(-c3ccc([N+](=O)[O-])cc3)o2)C(=O)N1 [dantrolene] | – | 0 | 0 | 0 | – | > 10 µM | > 10 µM | > 10 µM | – | – | – | – | – | 102% | 95% | 106% | 102% | 112% | 102% | 101% | 95.6% | 101% | 107% | 110% | 97.1% | 91.7% | 97.8% | 89.7% | 0 | > 10 µM | 96.8% | 101% | 96.1% | 103% | 95.6% |
| OC(CCCN1CCCCC1)(c1ccccc1)c1ccccc1 [diphenidol] | – | 0 | 0 | 0 | – | > 10 µM | > 10 µM | > 10 µM | – | – | – | – | – | 120% | 104% | 97.8% | 106% | 98.6% | 96.1% | 101% | 102% | 109% | 105% | 90.3% | 93.3% | 90.5% | 102% | 87.8% | 0 | > 10 µM | 104% | 98.9% | 103% | 99.5% | 100% |
| CCOc1c(N2CCOCC2)cnn(C)c1=O [emorfazone] | 0 | – | 0 | 0 | > 10 µM | – | > 10 µM | > 10 µM | 95.3% | 93.6% | 98.3% | 96.2% | 99.4% | – | – | – | – | – | 106% | 109% | 97.2% | 118% | 108% | 99.1% | 119% | 112% | 127% | 108% | 0 | > 10 µM | 96.4% | 93.1% | 93.8% | 96.1% | 104% |
| COc1cc(OC)cc(N(CCNC(C)C)c2ccc3ncc(-c4cnn(C)c4)nc3c2)c1 [erdafitinib] | 3.6 | 1.3 | 3.4 | 1.7 | 3.04 µM | > 10 µM | 3.09 µM | – | 94% | 99% | 92% | 98.9% | 35.9% | 109% | 90.2% | 92.3% | 89.6% | 81.4% | 101% | 111% | 104% | 99.4% | 39.2% | 90.1% | 99.3% | 94% | 99.3% | 65.2% | 4.1 | – | 101% | 97.3% | 91.5% | 84% | 53.1% |
| CCOC(=O)c1cncn1[C@H](C)c1ccccc1 [etomidate] | 0 | 0 | 0 | – | > 10 µM | > 10 µM | > 10 µM | – | 102% | 96.4% | 104% | 89.1% | 106% | 94.2% | 111% | 97.1% | 102% | 100% | 95% | 86.3% | 97.3% | 100% | 91.7% | – | – | – | – | – | 0 | > 10 µM | 91.8% | 99.2% | 94.4% | 97.2% | 102% |
| COc1c(N2CCNC(C)C2)c(F)cc2c(=O)c(C(=O)O)cn(C3CC3)c12 (centres undefined) [gatifloxacin] | – | 0 | 0 | 0 | – | > 10 µM | > 10 µM | > 10 µM | – | – | – | – | – | 101% | 114% | 103% | 103% | 89.4% | 99.1% | 101% | 95.9% | 98.7% | 100% | 95.7% | 99.9% | 97.6% | 100% | 96.8% | 0 | > 10 µM | 102% | 98.5% | 94.7% | 95.2% | 93% |
| CN(C)c1ccc2c(c1)Sc1cc(N(C)C)ccc1N2 [leucomethylene-blue] | 4.9 | 4.4 | 8.7 | 5.2 | 1.55 µM | 3.65 µM | 1.53 µM | 2.54 µM | 95.8% | 97.1% | 93.9% | 85.2% | 45.9% | 101% | 102% | 102% | 109% | 9% | 93.1% | 93.2% | 93.6% | 76.4% | 7.7% | 95.2% | 99% | 102% | 94.1% | 23.1% | 2.2 | – | 99.5% | 94.1% | 97.2% | 99.6% | 56.9% |
| CN(C)C(=N)NC(=N)N [metformin] | 0 | 0 | 0 | 0 | > 10 µM | > 10 µM | > 10 µM | > 10 µM | 93.6% | 102% | 103% | 103% | 102% | 103% | 103% | 85.6% | 101% | 89.1% | 93.4% | 96.7% | 97.2% | 94.3% | 93% | 106% | 95.7% | 90.2% | 104% | 109% | – | – | – | – | – | – | – |
| C[C@@H]1C/C=C/C=C/C=C/C=C/[C@H](O[C@@H]2O[C@H](C)[C@@H](O)[C@H](N)[C@@H]2O)C[C@@H]2O[C@](O)(C[C@@H](O)C[C@H]3O[C@@H]3/C=C/C(=O)O1)C[C@H](O)[C@H]2C(=O)O [natamycin] | 0 | – | 0 | 0 | > 10 µM | – | > 10 µM | > 10 µM | 95.7% | 96.6% | 93.3% | 88.7% | 105% | – | – | – | – | – | 89.7% | 91.6% | 92.5% | 93.3% | 94.8% | 90.9% | 103% | 95.3% | 97.1% | 107% | 0 | > 10 µM | 95.9% | 97.5% | 94.3% | 102% | 108% |
| Nc1nc2ccc(OC(F)(F)F)cc2s1 [riluzole] | 0 | 0 | 0 | 0 | > 10 µM | > 10 µM | > 10 µM | > 10 µM | 93.4% | 98.1% | 98.7% | 99.5% | 104% | 96% | 100% | 109% | 97.5% | 103% | 97.9% | 106% | 96.6% | 94.7% | 105% | 97.4% | 90.4% | 91.7% | 103% | 96.9% | – | – | – | – | – | – | – |
| CC1(C)CN(C(=O)c2ccc(-c3cccc4nc(NC(=O)C5CC5)nn34)cc2)C1 [solcitinib] | – | 0 | 0 | 1.5 | – | > 10 µM | > 10 µM | > 10 µM | – | – | – | – | – | 106% | 94.5% | 102% | 101% | 92.2% | 105% | 112% | 99.6% | 98.4% | 96.6% | 99.1% | 99.8% | 92.9% | 87.3% | 81.7% | 0 | > 10 µM | 101% | 97.3% | 101% | 97.2% | 96.8% |
| O=C(O)COc1cccc(CN(Cc2ccc(-n3cccn3)cc2)S(=O)(=O)c2cccnc2)c1 [taprenepag] | 0 | 0 | 0 | 0 | > 10 µM | > 10 µM | > 10 µM | > 10 µM | 105% | 97.2% | 97.5% | 102% | 104% | 109% | 95.6% | 94.5% | 92.9% | 91.7% | 92.5% | 104% | 93.8% | 104% | 96.4% | 104% | 102% | 99.2% | 109% | 93.9% | – | – | – | – | – | – | – |
| CC(=O)Nc1ccc(NC(=S)NC(=O)c2ccc(C(C)(C)C)cc2)cc1 [tenovin-1] | 5.6 | 1.3 | 8.2 | 0 | – | > 10 µM | 0.65 µM | > 10 µM | 99.9% | 98.8% | 105% | 67.8% | 61.7% | 108% | 95.1% | 95.8% | 90.9% | 77.2% | 113% | 89.6% | 104% | 56.8% | 42.4% | 94.7% | 91.4% | 106% | 100% | 88.7% | 0 | > 10 µM | 95.6% | 96.8% | 96.2% | 103% | 98.3% |
| CN1c2ccccc2C(NCCCCCCC(=O)O)c2ccc(Cl)cc2S1(=O)=O (centres undefined) [tianeptine] | 0.3 | 0 | 0 | 0 | > 10 µM | > 10 µM | > 10 µM | > 10 µM | 104% | 102% | 101% | 94.1% | 88.1% | 100% | 103% | 92.4% | 102% | 102% | 100% | 108% | 96.2% | 108% | 98.6% | 103% | 92.7% | 107% | 94.8% | 92.8% | – | – | – | – | – | – | – |
| N=C(N)NCCC[C@H](NC(=O)[C@@H]1CCCN1C(=O)[C@@H]1CSSC[C@H](N)C(=O)N[C@@H](Cc2ccc(O)cc2)C(=O)N[C@@H](Cc2ccccc2)C(=O)N[C@@H](CCC(N)=O)C(=O)N[C@@H](CC(N)=O)C(=O)N1)C(=O)NCC(N)=O [vasopressin] | 0 | – | 0 | 0 | > 10 µM | – | > 10 µM | > 10 µM | 101% | 99.1% | 98.1% | 94% | 99.1% | – | – | – | – | – | 101% | 98% | 86.3% | 92.3% | 99.5% | 94.8% | 93% | 88% | 87.5% | 99.2% | 0 | > 10 µM | 102% | 97.2% | 99.8% | 97.8% | 98% |
